Drawing on paper PMC4222822, “Discovery and Characterization of a Potent and Selective Inhibitor of Aedes aegypti Inward Rectifier Potassium Channels” (PLoS ONE, 2014), this text covers IC50 and radioligand displacement for one molecule.

The structures appear in SMILES notation. Bounds are passed on as bounds.

The target of one assay is T1, Kir2.1 (Homo sapiens, UniProt P63252).
T1 construct: expressed in transfected cells
T1 sequence (P63252 1-427): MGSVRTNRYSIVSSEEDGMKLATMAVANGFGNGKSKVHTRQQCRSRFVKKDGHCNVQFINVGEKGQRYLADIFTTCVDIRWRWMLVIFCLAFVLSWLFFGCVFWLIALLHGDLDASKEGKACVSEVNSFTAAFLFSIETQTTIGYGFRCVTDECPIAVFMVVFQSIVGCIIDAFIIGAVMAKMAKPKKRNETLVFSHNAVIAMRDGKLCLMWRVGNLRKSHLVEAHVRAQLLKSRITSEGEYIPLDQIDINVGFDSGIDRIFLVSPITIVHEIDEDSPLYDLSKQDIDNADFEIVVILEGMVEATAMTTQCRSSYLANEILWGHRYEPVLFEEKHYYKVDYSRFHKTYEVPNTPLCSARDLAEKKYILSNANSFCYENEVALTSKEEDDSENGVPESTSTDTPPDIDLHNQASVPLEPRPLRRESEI
Description: Tl+ flux selectivity assay, Kir2.1. The class given is cell-based. The settings on record: n = 2 independent experiments in triplicate, read-out: Inhibition of Tl+ flux (IC50). On the procedure:
[Worded in the source for another target; used here, by the source, with some conditions changed.] (§1) Tl^+ flux assays were performed essentially as described previously, [18], [19]. Briefly, stably transfected T-Rex-HEK-293 cells expressing AeKir1 channels were cultured overnight in 384-well plates (20,000 cells/20 µL/well black-walled, clear-bottomed BD PureCoat amine-coated plates (BD, Bedford, MA) with a plating media containing DMEM, 10% dialyzed FBS and 1 µg/mL tetracycline. The next day, the cell culture medium was replaced with a dye-loading solution containing assay buffer (Hanks Balanced Salt Solution with 20 mM HEPES, pH 7.3), 0.01% (w/v) Pluronic F-127 (Life Technologies, Carlsbad, CA), and 1.2 µM of the thallium-sensitive dye Thallos-AM (TEFlabs, Austin, TX). Following 1 hr incubation at room temperature, the dye-loading solution was washed from the plates and replaced with 20 µL/well of assay buffer. […] Tl^+ flux data were analyzed as previously described, [21], [22] using a combination of Excel (Microsoft Corp, Redmond, WA) with XLfit add-in (IDBS, Guildford, Surrey, UK) and OriginPro (OriginLab, Northampton, MA) software. […] The slope of the fluorescence increase beginning 5 s after Tl^+ addition and ending 15 s after Tl^+ addition was calculated.

In another assay the target is T2, Kir2.2 (Homo sapiens, UniProt Q14500).
T2 construct: expressed in transfected cells
T2 sequence (Q14500 1-433): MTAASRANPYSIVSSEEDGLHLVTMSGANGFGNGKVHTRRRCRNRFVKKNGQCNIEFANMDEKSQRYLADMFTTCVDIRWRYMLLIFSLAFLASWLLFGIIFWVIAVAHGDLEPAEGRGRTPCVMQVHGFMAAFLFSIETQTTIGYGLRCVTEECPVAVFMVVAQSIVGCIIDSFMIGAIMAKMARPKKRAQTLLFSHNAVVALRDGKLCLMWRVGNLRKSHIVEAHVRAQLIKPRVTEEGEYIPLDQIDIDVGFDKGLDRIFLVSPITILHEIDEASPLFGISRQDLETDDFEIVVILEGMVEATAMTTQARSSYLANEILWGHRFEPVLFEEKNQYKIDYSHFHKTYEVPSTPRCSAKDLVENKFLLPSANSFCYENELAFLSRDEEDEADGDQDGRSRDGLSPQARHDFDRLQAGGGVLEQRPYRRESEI
The assay is described as follows: Tl+ flux selectivity assay, Kir2.2. Type of assay: cell-based. The note with it: n = 2 independent experiments in triplicate, read-out: Inhibition of Tl+ flux (IC50). On the procedure:
[Worded in the source for another target; used here, by the source, with some conditions changed.] as §1

The target in a further assay is T3, adenosine A1 receptor (Homo sapiens, UniProt P30542).
T3 sequence (P30542 1-326): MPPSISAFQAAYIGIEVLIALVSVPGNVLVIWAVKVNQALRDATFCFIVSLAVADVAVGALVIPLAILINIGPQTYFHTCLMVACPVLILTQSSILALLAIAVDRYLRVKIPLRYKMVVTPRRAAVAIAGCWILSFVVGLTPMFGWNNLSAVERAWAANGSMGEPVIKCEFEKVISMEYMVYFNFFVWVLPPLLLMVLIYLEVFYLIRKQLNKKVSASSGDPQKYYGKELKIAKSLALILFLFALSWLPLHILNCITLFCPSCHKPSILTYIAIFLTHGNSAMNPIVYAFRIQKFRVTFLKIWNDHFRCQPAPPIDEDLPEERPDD
Description: Radioligand displacement assay, adenosine A1 receptor. The class given is binding, mammalian. The settings on record: 10 µM VU625.

With `CCC(=O)N1c2ccc(S(=O)(=O)Nc3cccc(OC)c3)cc2CC1C` (stereo not drawn) [VU625, N-(3-methoxyphenyl)-2-methyl-1-propionylindoline-5-sulfonamide], the concentration for half-maximal inhibition (IC50) on Kir2.1 and on Kir2.2 was > 30 µM in each case. The molecule also registered a radioligand displacement on adenosine A1 receptor of 76%.
